Assay results taken from patent US12677834B2, “Silver silicalite zeolite nanomaterials for reducing Candida auris biofilms” (Imam Abdulrahman Bin Faisal University, priority 2023, dated 2026).

Key:
[1] = tested on: planktonic C. auris; test: Effect on planktonic C. auris by light microscopy; assay type: cell-based, Candida auris; settings: clade 3 (strain CA9), compared to clade 1 and clade 2; AgNO3 0.0250 to 0.0025 mg/mL
Procedure: The antifungal activity of the nanomaterial on planktonic C. auris strains was determined by using light microscopy examination. Briefly, the inoculum was adjusted to a final concentration of 10^6 cells mL^−1. […] Plates were incubated at 37° C. for 48 h. […] The mean value of the duplicates was recorded, and micrographs were taken. One-way ANOVA analysis was carried out to identify the significance.

[2] = tested on: Candida auris biofilm; test: Biofilm CFU killing assay (96-well microtiter plate, 24 and 48 h); assay type: cell-based; settings: clade 3 (strain CA9), compared to clade 1 and clade 2; AgNO3 0.0250 to 0.0025 mg/mL
Procedure: C. auris strains, the clinical isolates, were used to study the effects of the nanomaterial on biofilm formation for 24 and 48 h. All analyses were performed with replicates, and mean values were considered. Initially, culture cells from preserved stock at -80° C. were revived by streaking onto Sabauraud dextrose agar (SDA) plates and incubating overnight at 37° C. From the revived plates, a loopful of the strains was inoculated into SDB and further incubated using an orbital shaker at 130 rpm and 37° C. for 24 and 48 h. The biofilm assay was carried out using the 96-well microtiter plate. The cells harvested from overnight SDB cultures were adjusted to a cell density of 10^7 CFU/mL and diluted. […] Post incubation, plates were manually counted and recorded for the number of cells. Later, the quantity of biofilm formation was determined using a colony-forming unit technique (CFU) and determined as per the following formula: A/B×100 (A is the total number of colonies after treatment and B is the number of cells in control). […] Later, the quantity of biofilm formation was determined using the CFU technique. […] Post incubation, plates were manually counted and recorded for the number of cells. Then, the quantity of biofilm formation was determined using the CFU technique and determined as per the following formula: CFU/mL=(Number of colonies×dilution factor)/volume of plated culture. […]

Compound: O=[N+]([O-])[O-].[Ag+] [AgNO3, silver nitrate]
- inhibitory effect on the planktonic cells [1]: complete inhibitory effect
- inhibitory effect on the biofilm [2]: complete inhibitory effect
